A short description of this data set: method code SF-AS, from DOI: 10.1111/j.2042-7158.1992.tb05470.x, PMID: 1357140. The note with it: pH 7.4.

Each structure is given as a SMILES string.

Usually logD stands for the decadic logarithm of the distribution of all forms, ionised or not, between an organic phase and buffer at a given pH. Take `CC(C)NC(=S)NS(=O)(=O)c1cnccc1NC1CCCCCC1`: the logD amounted to 0.96.

Source of the values: the SangsterLogP compilation.
